Measurements reported in ChEMBL document CHEMBL1121855, “Potential salicylamide antiplaque agents: in vitro antibacterial activity against Actinomyces viscosus” (J Med Chem, 1981).
≈ marks a conversion by molar mass, not a printed value.

Columns and labels:
[1] = system: Actinomyces viscosus; assay: In vitro antibacterial activity against Actinomyces viscosus M-100-2000; format: functional
[2] = Distribution coefficient between octanol and aqueous phase at pH7.2; format: physicochemical; details: pH 7.2
[3] = Observed inhibitory activity against various Actinomycetes strains; details: actinomycetaceae
[4] = Partition coefficient is determined in octanol/buffer solution; format: physicochemical; details: octanol/buffer; read-out: logP
[5] = Dissociation constant is the negative logarithm of the equilibrium coefficient of the neutral and charged forms of the compound; format: physicochemical
[6] = system: Actinomyces israelii; assay: In vitro antibacterial activity against Actinomycetes israelii 28360; format: functional
[7] = system: Actinomyces naeslundii; assay: In vitro antibacterial activity against Actinomycetes naeslundii 12104; format: functional
[8] = system: Actinomyces naeslundii; assay: In vitro antibacterial activity against Actinomycetes naeslundii 8115; format: functional
[9] = system: Actinomyces israelii; assay: In vitro antibacterial activity against Actinomycetes israelii 10048; format: functional
[10] = system: Actinomyces viscosus; assay: In vitro antibacterial activity against Actinomycetes viscosus T14V; format: functional
[11] = system: Actinomyces israelii; assay: In vitro antibacterial activity against Actinomycetes israelii 12836; format: functional

CCCCCCCCCCCC(=O)c1ccc(O)c(C(=O)NCc2ccc(Cl)c(Cl)c2)c1
MIC [1]: 5 µg/mL (≈ 10.5 µM)

CCCCc1ccc(O)c(C(=O)Nc2ccc(Br)cc2)c1
logD [2]: 5.88
Log 1/MIC [3]: 6.54
logP [4]: 6.09
pKa [5]: 7.35
MIC [1]: 0.1 µg/mL (≈ 0.287 µM)

CCCCCCc1ccc(O)c(C(=O)NCc2ccc([N+](=O)[O-])cc2)c1
MIC [6]: 0.1 µg/mL (≈ 0.281 µM)
MIC [7]: 0.05 µg/mL (≈ 0.14 µM)
MIC [8]: 0.05 µg/mL (≈ 0.14 µM)
MIC [1]: 0.05 µg/mL (≈ 0.14 µM)
MIC [9]: 0.5 µg/mL (≈ 1.4 µM)
MIC [10]: 0.05 µg/mL (≈ 0.14 µM)
MIC [11]: 0.1 µg/mL (≈ 0.281 µM)

CCCCCCCCCC(=O)c1ccc(O)c(C(=O)Nc2ccc(Br)cc2)c1
logD [2]: 6.88
Log 1/MIC [3]: 6.87
logP [4]: 8.02
pKa [5]: 6.1
MIC [1]: 0.06 µg/mL (≈ 0.134 µM)

O=C(Nc1nc2ccccc2s1)c1cc(Br)cc(Br)c1O
MIC [1]: 1.7 µg/mL (≈ 3.97 µM)

O=C(Nc1ccc(Br)cc1)c1cc(Br)ccc1O [DIBROMSALAN]
logD [2]: 4.75
Log 1/MIC [3]: 5.87
logP [4]: 5.26
pKa [5]: 6.85
MIC [1]: 0.5 µg/mL (≈ 1.35 µM)

CCCCCCCCCCCC(=O)c1ccc(O)c(C(=O)Nc2nc3ccccc3s2)c1
MIC [1]: > 20 µg/mL

O=C(NCCCCCCNC(=O)c1ccccc1O)c1ccccc1O
MIC [1]: > 20 µg/mL

O=C(Nc1ccc(Br)cc1)c1ccccc1O
logD [2]: 3.78
Log 1/MIC [3]: 4.47
logP [4]: 4.13
pKa [5]: 7.1
MIC [1]: 10 µg/mL (≈ 34.2 µM)

CCC(=O)c1ccc(O)c(C(=O)Nc2ccc(Br)cc2)c1
logD [2]: 3.38
Log 1/MIC [3]: 4.43
logP [4]: 4.52
pKa [5]: 6.1
MIC [1]: 13 µg/mL (≈ 37.3 µM)

O=C(Nc1nccs1)c1cc(Br)cc(Br)c1O
MIC [1]: 95 µg/mL (≈ 251 µM)

CCCCCCc1ccc(O)c(C(=O)Nc2cccc(C(F)(F)F)c2)c1
MIC [6]: > 5 µg/mL
MIC [7]: 0.05 µg/mL (≈ 0.137 µM)
MIC [8]: 0.1 µg/mL (≈ 0.274 µM)
MIC [1]: 0.5 µg/mL (≈ 1.37 µM)
MIC [9]: 0.5 µg/mL (≈ 1.37 µM)
MIC [10]: 0.05 µg/mL (≈ 0.137 µM)
MIC [11]: 0.5 µg/mL (≈ 1.37 µM)

Cc1ccc(O)c(C(=O)Nc2ccc([N+](=O)[O-])cc2)c1
MIC [1]: 5 µg/mL (≈ 18.4 µM)

CCCCCCCCCCCCCC(=O)c1ccc(O)c(C(=O)Nc2ccc(Br)cc2)c1
MIC [1]: > 5 µg/mL

Cc1cc(C)nc(NC(=O)c2cc(Br)cc(Br)c2O)n1
MIC [1]: 200 µg/mL (≈ 499 µM)

O=C(Nc1ccc(Br)cc1)c1cc([N+](=O)[O-])ccc1O
logD [2]: 3.16
Log 1/MIC [3]: 5.05
logP [4]: 4.58
pKa [5]: 5.8
MIC [1]: 3 µg/mL (≈ 8.9 µM)

O=C(Nc1nc2c(Cl)cccc2s1)c1cc(Br)cc(Br)c1O
MIC [1]: 1.7 µg/mL (≈ 3.68 µM)

CCCCCCCCCCCC(=O)c1ccc(O)c(C(=O)Nc2ccc([N+](=O)[O-])cc2)c1
MIC [1]: 0.05 µg/mL (≈ 0.113 µM)

O=C(NCCCCCCNC(=O)c1cc(Br)ccc1O)c1cc(Br)ccc1O
MIC [1]: > 20 µg/mL

O=C(NCC1CCCCC1)c1cc(Br)cc(Br)c1O
MIC [1]: 12 µg/mL (≈ 30.7 µM)

CCCCCCc1ccc(O)c(C(=O)Nc2nc3ccccc3s2)c1
MIC [1]: > 20 µg/mL

O=C(Nc1cccc(C(F)(F)F)c1)c1cc(Br)cc(Br)c1O [FLUOROSALAN]
MIC [6]: 0.1 µg/mL (≈ 0.228 µM)
MIC [7]: 1 µg/mL (≈ 2.28 µM)
MIC [8]: 0.5 µg/mL (≈ 1.14 µM)
MIC [1]: 1 µg/mL (≈ 2.28 µM)
MIC [9]: 0.5 µg/mL (≈ 1.14 µM)
MIC [10]: 0.5 µg/mL (≈ 1.14 µM)
MIC [11]: 0.5 µg/mL (≈ 1.14 µM)

Cc1ccc(O)c(C(=O)Nc2ccc(Br)cc2)c1
logD [2]: 4.38
Log 1/MIC [3]: 5.09
logP [4]: 4.61
pKa [5]: 7.35
MIC [1]: 2.5 µg/mL (≈ 8.17 µM)
MIC [10]: 5.2 µg/mL (≈ 17 µM)

CCCCc1ccc(O)c(C(=O)Nc2cccc(C(F)(F)F)c2)c1
MIC [1]: 0.5 µg/mL (≈ 1.48 µM)

CCCCCCCC(=O)c1ccc(O)c(C(=O)Nc2cccc(C(F)(F)F)c2)c1
MIC [1]: 0.5 µg/mL (≈ 1.23 µM)

Cc1cccnc1NC(=O)c1cc(Br)cc(Br)c1O
MIC [1]: > 155 µg/mL

COc1ccc(NC(=O)c2cc(C)ccc2O)cc1
MIC [1]: > 40 µg/mL
